Source: article PMC7366380, “Discovery of a Potent and Selective Covalent Inhibitor and Activity-Based Probe for the Deubiquitylating Enzyme UCHL1, with Antifibrotic Activity” (Journal of the American Chemical Society, 2020)
Several values for one entry are separate records, joined by “and”; a condition that tells them apart may be missing. Equal entries are not always repeated.

Experiments:
[1] = target: T1, FGFR2 (Homo sapiens, UniProt P21802); experiment: In-cell proteome-wide competitive ABPP, HEK293: FGFR2; conditions: HEK293, compound 60 min, then 2 (20 nM) 10 min
T1 sequence (P21802 22-821): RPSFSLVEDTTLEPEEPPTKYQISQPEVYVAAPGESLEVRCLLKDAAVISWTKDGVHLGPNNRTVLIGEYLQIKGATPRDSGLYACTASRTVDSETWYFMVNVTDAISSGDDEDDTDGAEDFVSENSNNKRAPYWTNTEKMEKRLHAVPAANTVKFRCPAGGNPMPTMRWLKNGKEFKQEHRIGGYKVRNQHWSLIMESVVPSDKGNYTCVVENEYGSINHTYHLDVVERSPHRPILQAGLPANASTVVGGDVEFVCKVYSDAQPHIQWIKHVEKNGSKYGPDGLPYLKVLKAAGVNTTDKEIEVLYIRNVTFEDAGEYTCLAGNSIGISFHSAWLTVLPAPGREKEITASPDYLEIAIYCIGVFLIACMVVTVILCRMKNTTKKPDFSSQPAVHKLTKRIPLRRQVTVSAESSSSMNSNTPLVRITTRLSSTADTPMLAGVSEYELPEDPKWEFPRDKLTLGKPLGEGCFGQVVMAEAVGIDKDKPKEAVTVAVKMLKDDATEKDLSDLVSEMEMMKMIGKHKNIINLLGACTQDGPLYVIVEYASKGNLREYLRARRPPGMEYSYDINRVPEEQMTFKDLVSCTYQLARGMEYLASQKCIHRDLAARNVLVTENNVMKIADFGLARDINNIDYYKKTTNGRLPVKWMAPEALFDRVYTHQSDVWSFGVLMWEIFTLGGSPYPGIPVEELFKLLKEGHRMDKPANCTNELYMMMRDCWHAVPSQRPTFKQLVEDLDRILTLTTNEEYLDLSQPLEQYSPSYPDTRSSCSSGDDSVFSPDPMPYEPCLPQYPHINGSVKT

[2] = target: T2, endogenous UCHL1 (Homo sapiens, UniProt P09936); experiment: ABP 2 target engagement in EA.hy926 and A549 cells (in-gel fluorescence, immunoblot); type: cell-based; conditions: 3 h
T2 construct: endogenous in cells; host or cells: EA.hy926 and A549
From the text: Figure S13. ABP 2 target engagement in A549 and EA.hy926 cells. […]
labeled proteins ligated to AzTB capture reagent. (a) Labeled proteins were separated by SDS-PAGE and visualised by in-gel fluorescence. (b) Labeled proteins were enriched by NeutrAvidin magnetic beads. Total lysate (TL), supernatant (SN) an d pulldown (PD) samples […]
Preparation of UCHL1 overexpression cell lysates
After cell lysis and CuAAC […]
relative to the sample volume.
SDS-PAGE and in-gel fluorescence imaging
The protein samples were separated
Biotin affinity enrichment for immunoblot analysis […]
re-suspended as described previously.
Proteins were separated by SDS-
Sample preparation for MS-based proteomic analysis

[3] = target: T1, FGFR2; experiment: ABP 2 labeling in HEK293 cells, pulldown and FGFR2 immunoblotting; conditions: HEK293, any concentration up to 2 μM
[4] = target: T3, UCHL3 (Homo sapiens, UniProt P15374); experiment: Quantitative chemical proteomic profiling of ABP 2 in HEK293 cells: UCHL3; conditions: for Log2 reporter intensity values (Log2FC, DMSO substract): UCHL3, listed as ABP 2
T3 sequence (P15374 1-230): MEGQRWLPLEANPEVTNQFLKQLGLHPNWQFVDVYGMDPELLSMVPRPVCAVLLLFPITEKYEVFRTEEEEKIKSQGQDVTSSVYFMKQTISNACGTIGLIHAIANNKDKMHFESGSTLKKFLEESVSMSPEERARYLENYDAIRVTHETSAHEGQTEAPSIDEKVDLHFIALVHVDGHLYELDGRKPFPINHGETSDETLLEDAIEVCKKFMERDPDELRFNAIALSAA

[5] = target: fibroblast growth factor receptor 2 (FGFR2) (Homo sapiens, UniProt P21802); experiment: Quantitative chemical proteomic profiling of ABP 2 in HEK293 cells: FGFR2; conditions: HEK293, 20 nM
Sequence of fibroblast growth factor receptor 2 (FGFR2) (P21802 22-821): as the sequence (P21802 22-821) above

[6] = target: EIF3H (Homo sapiens, UniProt O15372); experiment: Quantitative chemical proteomic profiling of ABP 2 in HEK293 cells: EIF3H; conditions: for Log2 reporter intensity values (Log2FC, DMSO substract): EIF3H, listed as ABP 2
[7] = target: T4, DUBs and other proteins in HEK293 cells (Homo sapiens, UniProt Q53GS9); experiment: Quantitative chemical proteomic profiling of ABP 2 in HEK293 cells: other DUBs and proteins across the proteome; conditions: USP39
T4 sequence (Q53GS9 1-565): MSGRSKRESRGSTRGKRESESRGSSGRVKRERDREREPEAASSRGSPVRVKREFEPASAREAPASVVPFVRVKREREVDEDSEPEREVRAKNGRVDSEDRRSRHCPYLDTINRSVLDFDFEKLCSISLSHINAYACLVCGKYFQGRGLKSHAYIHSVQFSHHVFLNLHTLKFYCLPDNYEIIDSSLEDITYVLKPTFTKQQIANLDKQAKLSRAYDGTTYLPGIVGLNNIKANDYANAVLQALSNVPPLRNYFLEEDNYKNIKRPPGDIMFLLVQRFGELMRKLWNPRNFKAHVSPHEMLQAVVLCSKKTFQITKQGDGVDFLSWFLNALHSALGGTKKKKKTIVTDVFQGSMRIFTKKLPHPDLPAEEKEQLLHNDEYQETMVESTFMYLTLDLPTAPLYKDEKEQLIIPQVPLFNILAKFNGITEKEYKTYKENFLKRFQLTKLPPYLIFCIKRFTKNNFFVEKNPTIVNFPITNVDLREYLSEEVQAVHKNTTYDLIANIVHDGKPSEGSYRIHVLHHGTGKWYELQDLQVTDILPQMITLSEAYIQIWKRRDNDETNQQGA

[8] = target: DUBs and other proteins in HEK293 cells (Homo sapiens, UniProt Q6P2Q9); experiment: as above; conditions: PRPF8, listed as ABP 2
[9] = target: DUBs and other proteins in HEK293 cells (Homo sapiens, UniProt Q96FW1); experiment: as above; conditions: OTUB1, listed as ABP 2
Sequence of DUBs and other proteins in HEK293 cells (Homo sapiens, UniProt Q96FW1) (Q96FW1 whole entry): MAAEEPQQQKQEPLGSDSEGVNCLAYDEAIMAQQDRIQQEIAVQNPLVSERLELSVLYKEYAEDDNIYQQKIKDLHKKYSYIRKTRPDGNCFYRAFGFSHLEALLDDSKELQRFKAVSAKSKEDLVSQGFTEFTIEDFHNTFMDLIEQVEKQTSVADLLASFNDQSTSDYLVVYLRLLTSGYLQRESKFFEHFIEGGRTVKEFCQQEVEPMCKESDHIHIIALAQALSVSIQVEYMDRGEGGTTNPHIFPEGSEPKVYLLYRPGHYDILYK

[10] = target: T5, UCHL1 (Homo sapiens, UniProt P09936); conditions: compared with 1
T5 sequence (P09936 1-223): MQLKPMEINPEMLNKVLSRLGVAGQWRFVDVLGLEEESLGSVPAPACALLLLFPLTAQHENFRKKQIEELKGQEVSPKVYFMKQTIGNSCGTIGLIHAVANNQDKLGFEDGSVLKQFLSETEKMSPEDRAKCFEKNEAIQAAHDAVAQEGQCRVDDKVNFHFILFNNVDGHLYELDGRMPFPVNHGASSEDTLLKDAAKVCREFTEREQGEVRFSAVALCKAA

[11] = system: primary human bronchial fibroblasts from IPF patients
[12] = 200 nM, 180 min, replicates A,C

N#CN1CCC[C@H]1C(=O)N1CCc2c(-c3c[nH]c4ncccc34)cccc21 [Compound 1]
FGFR2 response in proteome-wide competitive ABPP [1]: responds

C#Cc1cnc2[nH]cc(-c3cccc4c3CCN4C(=O)[C@@H]3CCCN3C#N)c2c1 [Compound 2]
profiling of endogenous UCHL1 activity in other cell types [2]: excellent selectivity | FGFR2 enrichment by pulldown and immunoblotting [3]: barely detectable | UCHL3 enrichment (chemical proteomics) ([4]; HEK293, higher concentrations): marginal enrichment | Log2 reporter intensity values (Log2FC, DMSO substract) ([4]; 2 nM, 60 min, replicates A-C): 0.05364 and -0.07312 and 0.4093 | Log2 reporter intensity values (Log2FC, DMSO substract) ([4]; 20 nM, 10 min, replicates B,C): 0.1568 and 0.3164 | Log2 reporter intensity values (Log2FC, DMSO substract) ([4]; 20 nM, 60 min, replicates A-C): 0.5413 and 1.009 and 0.8836 | Log2 reporter intensity values (Log2FC, DMSO substract) ([4]; 20 nM, 180 min, replicates A-C): 1.082 and 1.256 and 0.9512 | Log2 reporter intensity values (Log2FC, DMSO substract) ([4]; 200 nM, 10 min, replicates B,C): 0.8647 and 0.7273 | Log2 reporter intensity values (Log2FC, DMSO substract) ([4]; 200 nM, 60 min, replicates A-C): 1.566 and 2.128 and 1.659 | Log2 reporter intensity values (Log2FC, DMSO substract) [4, 12]: 2.355 and 2.225 | FGFR2 enrichment (chemical proteomics) [5]: significantly enriched | Log2 reporter intensity values (Log2FC, DMSO substract) ([6]; 2 nM, 60 min, replicates A-C): 0.03927 and 0.1861 and 0.1127 | Log2 reporter intensity values (Log2FC, DMSO substract) ([6]; 20 nM, 10 min, replicates B,C): 0.003189 and 0.05275 | Log2 reporter intensity values (Log2FC, DMSO substract) ([6]; 20 nM, 60 min, replicates A-C): 0.08479 and -0.05372 and 0.1466 | Log2 reporter intensity values (Log2FC, DMSO substract) ([6]; 20 nM, 180 min, replicates A-C): -0.0501 and -0.006928 and -0.004662 | Log2 reporter intensity values (Log2FC, DMSO substract) ([6]; 200 nM, 10 min, replicates B,C): 0.1905 and -0.004432 | Log2 reporter intensity values (Log2FC, DMSO substract) ([6]; 200 nM, 60 min, replicates A-C): 0.08499 and -0.02572 and 0.1313 | Log2 reporter intensity values (Log2FC, DMSO substract) [6, 12]: -0.03275 and 0.07608 | Log2 t-test Difference, EIF3H, 2 nM ([6]; HEK293, 2 nM vs DMSO, 1 h, enrichment, TMT, n=3): 0.1127 | Log2 t-test Difference, EIF3H, 20 nM ([6]; HEK293, 20 nM vs DMSO, 1 h, enrichment, TMT, n=3): 0.05921 | Log2 t-test Difference, EIF3H, 200 nM ([6]; HEK293, 200 nM vs DMSO, 1 h, enrichment, TMT, n=3): 0.06352 | Log2 reporter intensity values (Log2FC, DMSO substract) ([7]; 2 nM, 60 min, replicates A-C, listed as ABP 2): 0.1489 and -0.6669 | Log2 reporter intensity values (Log2FC, DMSO substract) ([7]; 20 nM, 10 min, replicates B,C): 0.2437 | Log2 reporter intensity values (Log2FC, DMSO substract) ([7]; 20 nM, 60 min, replicates A-C, listed as ABP 2): 0.1765 and 0.5295 | Log2 reporter intensity values (Log2FC, DMSO substract) ([7]; 20 nM, 180 min, replicates A-C, listed as ABP 2): 0.1037 and 0.2866 | Log2 reporter intensity values (Log2FC, DMSO substract) ([7]; 200 nM, 10 min, replicates B,C): 0.594 | Log2 reporter intensity values (Log2FC, DMSO substract) ([7]; 200 nM, 60 min, replicates A-C, listed as ABP 2): 0.3986 and 0.5245 | Log2 reporter intensity values (Log2FC, DMSO substract) [7, 12]: 0.3314 | Log2 reporter intensity values (Log2FC, DMSO substract) ([8]; 2 nM, 60 min, replicates A-C): -0.06588 and -0.04701 and -0.09225 | Log2 reporter intensity values (Log2FC, DMSO substract) ([8]; 20 nM, 10 min, replicates B,C): -0.04258 and -0.0756 | Log2 reporter intensity values (Log2FC, DMSO substract) ([8]; 20 nM, 60 min, replicates A-C): -0.1603 and -0.1771 and -0.09715 | Log2 reporter intensity values (Log2FC, DMSO substract) ([8]; 20 nM, 180 min, replicates A-C): -0.4052 and -0.02523 and -0.1285 | Log2 reporter intensity values (Log2FC, DMSO substract) ([8]; 200 nM, 10 min, replicates B,C): -0.213 and -0.1784 | Log2 reporter intensity values (Log2FC, DMSO substract) ([8]; 200 nM, 60 min, replicates A-C): 0.0802 and -0.1457 and -0.1731 | Log2 reporter intensity values (Log2FC, DMSO substract) [8, 12]: -0.0003694 and 0.003479 | Log2 reporter intensity values (Log2FC, DMSO substract) ([9]; 2 nM, 60 min, replicates A-C): 0.1769 and 0.1167 and 0.05908 | Log2 reporter intensity values (Log2FC, DMSO substract) ([9]; 20 nM, 10 min, replicates B,C): 0.07104 | Log2 reporter intensity values (Log2FC, DMSO substract) ([9]; 20 nM, 60 min, replicates A-C): 0.004019 | Log2 reporter intensity values (Log2FC, DMSO substract) ([9]; 20 nM, 180 min, replicates A-C): -0.1034 and 0.07381 and 0.1015 | Log2 reporter intensity values (Log2FC, DMSO substract) ([9]; 200 nM, 10 min, replicates B,C): 0.1233 and 0.1033 | Log2 reporter intensity values (Log2FC, DMSO substract) ([9]; 200 nM, 60 min, replicates A-C): 0.176 and 0.4057 and 0.2275 | Log2 reporter intensity values (Log2FC, DMSO substract) [9, 12]: 0.3761 and 0.4198

N#CN1CCC[C@@H]1C(=O)N1CCc2c(-c3c[nH]c4ncccc34)cccc21 [Compound 3]
fold less active than 1 (UCHL1 FP assay) [10]: > 1000 fold

CC(=O)O/N=C1\C(=O)N(Cc2cc(Cl)ccc2Cl)c2ccc(Cl)cc21 [LDN-57444, reference compound]
cytotoxicity (in words) [11]: increased cytotoxicity
